From PubChem BioAssay (NCI) come the findings set out here.

Among the test systems are T-47D breast; SK-MEL-28 melanoma; RPMI-8226 leukemia; KM12 colon; MCF7 breast; SF-268 CNS; NCI-H226 lung; HT29 colon; MALME-3M melanoma; COLO 205 colon.
Holding throughout (assay): growth of human tumour cells (NCI), 48 h

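48-hour exposure; five concentrations; linearly interpolated endpoints. GI50 is the concentration that inhibits growth by half. TGI denotes the concentration required for complete inhibition of growth.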

Consider `Cn1cc(C2=C(c3cn(CCCN)c4ccccc34)C(=O)NC2=O)c2ccccc21`, for which the GI50 in the assay with T-47D breast was 6.4 µM; in the assay with SK-MEL-28 melanoma, 4.7 µM; in the assay with RPMI-8226 leukemia, 5.91 µM; in the assay on KM12 colon, 5.44 µM; in the assay with MCF7 breast it was 3.55 µM; with SF-268 CNS, 5.33 µM. Also, the GI50 in the assay with NCI-H226 lung is 5.87 µM; with HT29 colon, 4.74 µM; in the assay with MALME-3M melanoma, 5.66 µM; in the assay with COLO 205 colon it was 3.27 µM. Also, the TGI with T-47D breast was determined as 17.5 µM; with SK-MEL-28 melanoma it was 9.3 µM; in the assay with RPMI-8226 leukemia, 12.5 µM; in the assay with KM12 colon, 14.2 µM; with MCF7 breast, 10.4 µM; with SF-268 CNS, 12.8 µM. In addition, the TGI was more than 18 µM in the assay on NCI-H226 lung, 18.4 µM in the assay with HT29 colon, 10.6 µM with MALME-3M melanoma and 7.06 µM in the assay on COLO 205 colon.

On to `CCOc1ccc(C(C[N+](=O)[O-])Sc2ccccc2N)cc1` (centres undefined), for which the GI50 in the assay on T-47D breast is 6.77 µM; in the assay on SK-MEL-28 melanoma, 4.03 µM; with RPMI-8226 leukemia it was 2.23 µM; in the assay with KM12 colon, 3.27 µM; in the assay on MCF7 breast it was 1.71 µM; in the assay with SF-268 CNS it was 4.76 µM. Besides, the GI50 is 3.96 µM in the assay on NCI-H226 lung, 2.07 µM in the assay with HT29 colon, 12.3 µM in the assay on MALME-3M melanoma and 4.74 µM in the assay with COLO 205 colon. Also, the TGI with T-47D breast came to 25.3 µM; in the assay with SK-MEL-28 melanoma, 14.8 µM; in the assay on RPMI-8226 leukemia it was 5.32 µM; with KM12 colon, 10.2 µM; in the assay on MCF7 breast, 6.04 µM; in the assay on SF-268 CNS, 18.3 µM. Moreover, the TGI in the assay with NCI-H226 lung worked out at 16.2 µM; with HT29 colon it was 4.19 µM; in the assay with MALME-3M melanoma, 24.7 µM; in the assay on COLO 205 colon it was 16.8 µM.

Regarding `CC(=O)Nc1ccc(S(=O)(=O)N=S(C)C)cc1`, the TGI in the assay with T-47D breast, in the assay with SK-MEL-28 melanoma, in the assay on RPMI-8226 leukemia, in the assay on KM12 colon, in the assay on MCF7 breast and with SF-268 CNS was more than 100 µM throughout. Further, the TGI in the assay with NCI-H226 lung, in the assay with HT29 colon, in the assay on MALME-3M melanoma and in the assay on COLO 205 colon was more than 100 µM in each case.

Turning to `[N-]=[N+]=NCCCn1c2c(c3ccc([N+](=O)[O-])cc3c1=O)C(=O)c1cc(-c3ccccc3)ccc1-2`, the GI50 in the assay on T-47D breast, in the assay with SK-MEL-28 melanoma, with RPMI-8226 leukemia, in the assay on KM12 colon, in the assay on MCF7 breast and with SF-268 CNS was more than 100 µM throughout. Also, the GI50 in the assay on NCI-H226 lung, in the assay on HT29 colon, with MALME-3M melanoma and in the assay with COLO 205 colon was more than 100 µM in each case. The TGI in the assay with T-47D breast, in the assay with SK-MEL-28 melanoma, in the assay on RPMI-8226 leukemia, in the assay with KM12 colon, in the assay with MCF7 breast and in the assay on SF-268 CNS was more than 100 µM throughout. The TGI in the assay with NCI-H226 lung, in the assay on HT29 colon, in the assay with MALME-3M melanoma and in the assay with COLO 205 colon was more than 100 µM throughout.

As to `NC(Cc1c[nH]c2ccc([N+](=O)[O-])cc12)C(=O)O` (centres undefined), the TGI in the assay with T-47D breast, in the assay on SK-MEL-28 melanoma, with RPMI-8226 leukemia, in the assay with KM12 colon, in the assay with MCF7 breast and in the assay with SF-268 CNS was more than 100 µM each time. Further, the TGI in the assay with NCI-H226 lung, in the assay with HT29 colon, in the assay with MALME-3M melanoma and in the assay on COLO 205 colon was more than 100 µM each time.

As to `CCCCCCCCCCNCCSS(=O)(=O)O`, the GI50 with T-47D breast is 10.9 µM; in the assay on SK-MEL-28 melanoma, 1.65 µM; in the assay with RPMI-8226 leukemia, 2.2 µM; in the assay with KM12 colon, 1.55 µM; in the assay on MCF7 breast, 1.81 µM; in the assay with SF-268 CNS, 1.22 µM. Also, the GI50 is 2.51 µM in the assay with NCI-H226 lung, 2.21 µM in the assay on HT29 colon, 5.83 µM with MALME-3M melanoma and 13 µM with COLO 205 colon. The TGI with T-47D breast was determined as 29.5 µM; in the assay on SK-MEL-28 melanoma, 4.84 µM; with RPMI-8226 leukemia, 5.7 µM; in the assay with KM12 colon, 2.95 µM; in the assay on MCF7 breast, 3.38 µM; with SF-268 CNS, 2.52 µM. Further, the TGI with NCI-H226 lung stood at 5.16 µM; in the assay on HT29 colon, 4.79 µM; with MALME-3M melanoma it was 19.6 µM; in the assay on COLO 205 colon, 27.2 µM.

Consider `COc1cc(-c2nc3ccccc3o2)cc(CN2CCCCC2)c1O`, for which the GI50 in the assay on T-47D breast was 17 µM; in the assay with SK-MEL-28 melanoma it was 1.97 µM; with RPMI-8226 leukemia it was 2.85 µM; in the assay with KM12 colon, 2.39 µM; in the assay with MCF7 breast, 1.58 µM; in the assay with SF-268 CNS it was 5.12 µM. Further, the GI50 was 1.85 µM in the assay with NCI-H226 lung, 1.8 µM with MALME-3M melanoma and 2.38 µM in the assay with COLO 205 colon. Besides, the TGI is more than 100 µM in the assay with T-47D breast; 4.12 µM in the assay on SK-MEL-28 melanoma; more than 100 µM with RPMI-8226 leukemia; 16.6 µM with KM12 colon; 4.34 µM in the assay with MCF7 breast; more than 100 µM in the assay on SF-268 CNS. Further, the TGI in the assay on NCI-H226 lung was determined as 4.32 µM; in the assay with MALME-3M melanoma it was 3.87 µM; in the assay with COLO 205 colon, 4.6 µM.

As to `CCCCOc1ccc(/C=N/Nc2cc(C)nc3ccc(Br)cc23)cc1`, the GI50 was 1.69 µM in the assay with T-47D breast; 1.72 µM with SK-MEL-28 melanoma; 2.03 µM in the assay with RPMI-8226 leukemia; 1.95 µM in the assay with KM12 colon; 1.83 µM with MCF7 breast; 1.83 µM with NCI-H226 lung. Moreover, the results for the GI50 in the assay with HT29 colon, with MALME-3M melanoma and in the assay on COLO 205 colon were 1.55 µM, 1.91 µM and 1.85 µM, respectively. Further, the TGI with T-47D breast was found to be 3.6 µM; in the assay on SK-MEL-28 melanoma, 3.13 µM; in the assay on RPMI-8226 leukemia, 4.58 µM; with KM12 colon it was 3.85 µM; with MCF7 breast, 3.68 µM; in the assay with NCI-H226 lung, 3.82 µM. Further, the TGI worked out at 2.97 µM in the assay with HT29 colon, 3.4 µM in the assay with MALME-3M melanoma and 3.47 µM in the assay with COLO 205 colon.

For `O=C(/C=C/c1ccccn1)c1ccc(OCc2nnc(-c3ccc(Cl)cc3)o2)cc1`, the GI50 is 2.65 µM in the assay with T-47D breast; 1.77 µM with SK-MEL-28 melanoma; 0.296 µM with RPMI-8226 leukemia; 1.48 µM with KM12 colon; 0.378 µM in the assay with MCF7 breast; 2.69 µM with NCI-H226 lung. Besides, the figures for the GI50 in the assay on HT29 colon, in the assay on MALME-3M melanoma and in the assay on COLO 205 colon were 1.85 µM, 2.28 µM and 2.23 µM, respectively. Further, the TGI in the assay with T-47D breast worked out at 8.64 µM; with SK-MEL-28 melanoma it was 3.36 µM; in the assay with RPMI-8226 leukemia it was 1.06 µM; in the assay with KM12 colon, 3.3 µM; with MCF7 breast, 1.68 µM; in the assay on NCI-H226 lung, 7.79 µM. For the same molecule, the values for the TGI in the assay with HT29 colon, with MALME-3M melanoma and in the assay with COLO 205 colon were 3.99 µM, 4.46 µM and 4.39 µM, respectively.
